According to patent publication US20090016990A1, “Antimicrobial Compositions” (priority 2007, published 2009):

Assays:
[1] = tested on: Pseudomonas aeruginosa ATCC 27853; assay: MBEC assay, biofilm elimination, MBEC bioFILM PA panel; type: cell-based; set-up: MBEC-Biofilm Elimination, Without compound 2 / MBEC-Biofilm Elimination, With 0.01% compound 2 in 5% EtOH/PBS / MBEC-Biofilm Elimination, Without compound 7 / MBEC-Biofilm Elimination, With 0.01% compound 7 in 5% EtOH/PBS / MBEC-Biofilm Elimination, Without compound 1 / MBEC-Biofilm Elimination, With 0.01% compound 1 in 5% EtOH/PBS / MBEC-Biofilm Elimination, without salt of compound 2 / MBEC-Biofilm Elimination, with 0.1% salt of compound 2: unit not given here; conditions: for MBEC-Biofilm Elimination, without salt of compound 2 / MBEC-Biofilm Elimination, with 0.1% salt of compound 2: Table 9; for MBEC-Biofilm Elimination, without salt of compound 2 / MBEC-Biofilm Elimination, without salt of compound 6: antibiotic or antibiotic combination alone; for MBEC-Biofilm Elimination, without salt of compound 2 / MBEC-Biofilm Elimination, with 0.1% salt of compound 2 / MBEC-Biofilm Elimination, without salt of compound 6 / MBEC-Biofilm Elimination, with 0.1% salt of compound 6: value per component; for MBEC-Biofilm Elimination, with 0.1% salt of compound 2: antibiotic or combination plus 0.1% salt of compound 2; for MBEC-Biofilm Elimination, without salt of compound 6 / MBEC-Biofilm Elimination, with 0.1% salt of compound 6: Table 10; for MBEC-Biofilm Elimination, with 0.1% salt of compound 6: antibiotic or combination plus 0.1% salt of compound 6; for MBEC-Biofilm Elimination, Without compound 1 / MBEC-Biofilm Elimination, Without compound 2 / MBEC-Biofilm Elimination, Without compound 3 / MBEC-Biofilm Elimination, Without compound 6 / MBEC-Biofilm Elimination, Without compound 7 / MBEC-Biofilm Elimination, Without compound 9: antibiotic alone
[2] = tested on: Pseudomonas aeruginosa ATCC 27853; assay: MBEC assay, biofilm inhibition (prevention of biofilm formation), MBEC bioFILM PA panel; type: cell-based; set-up: MBEC-Biofilm Inhibition, Without compound 9 / MBEC-Biofilm Inhibition, Without compound 6 / MBEC-Biofilm Inhibition, Without compound 2 / MBEC-Biofilm Inhibition, Without compound 7 / MBEC-Biofilm Inhibition, With 0.01% compound 7 in 5% EtOH/PBS / MBEC-Biofilm Inhibition, without salt of compound 2 / MBEC-Biofilm Inhibition, with 0.1% salt of compound 2 / MBEC-Biofilm Inhibition, without salt of compound 6: unit not given here; conditions: for MBEC-Biofilm Inhibition, without salt of compound 2 / MBEC-Biofilm Inhibition, with 0.1% salt of compound 2: Table 9; for MBEC-Biofilm Inhibition, without salt of compound 2 / MBEC-Biofilm Inhibition, without salt of compound 6: antibiotic or antibiotic combination alone; for MBEC-Biofilm Inhibition, without salt of compound 2 / MBEC-Biofilm Inhibition, with 0.1% salt of compound 2 / MBEC-Biofilm Inhibition, without salt of compound 6 / MBEC-Biofilm Inhibition, with 0.1% salt of compound 6: value per component; for MBEC-Biofilm Inhibition, without salt of compound 2: separated by /; for MBEC-Biofilm Inhibition, with 0.1% salt of compound 2: antibiotic or combination plus 0.1% salt of compound 2; for MBEC-Biofilm Inhibition, without salt of compound 6 / MBEC-Biofilm Inhibition, with 0.1% salt of compound 6: Table 10; for MBEC-Biofilm Inhibition, with 0.1% salt of compound 6: antibiotic or combination plus 0.1% salt of compound 6; for MBEC-Biofilm Inhibition, Without compound 1 / MBEC-Biofilm Inhibition, Without compound 2 / MBEC-Biofilm Inhibition, Without compound 3 / MBEC-Biofilm Inhibition, Without compound 6 / MBEC-Biofilm Inhibition, Without compound 7 / MBEC-Biofilm Inhibition, Without compound 9: antibiotic alone; for MBEC: antibiotic or combination alone, concentrations in order of the combination; for MBEC, μg/mL +Compound 1: antibiotic plus Compound 1; for MBEC, μg/mL +Compound 2: antibiotic plus Compound 2; for MBEC, μg/mL +Compound 7: antibiotic plus Compound 7; for MBEC-Biofilm Inhibition, With 0.01% compound 2 in 5% EtOH/PBS / value in parentheses after MBEC-Biofilm Inhibition with 0.01% compound 2 (% reduction as in Table 2): with 0.01% compound 2 in 5% EtOH/PBS
[3] = reduction of antibiotic or combination required to prevent biofilm formation
[4] = with 0.01% compound 1 in 5% EtOH/PBS

Row | Compound | MBEC-Biofilm Elimination, without salt of compound 2 [1] | MBEC-Biofilm Elimination, with 0.1% salt of compound 2 [1] | MBEC-Biofilm Elimination, without salt of compound 6 [1] | MBEC-Biofilm Elimination, with 0.1% salt of compound 6 [1] | MBEC-Biofilm Elimination, Without compound 1 [1] | MBEC-Biofilm Elimination, Without compound 2 [1] | MBEC-Biofilm Elimination, Without compound 3 [1] | MBEC-Biofilm Elimination, Without compound 6 [1] | MBEC-Biofilm Elimination, Without compound 7 [1] | MBEC-Biofilm Elimination, Without compound 9 [1] | MBEC-Biofilm Elimination, With 0.01% compound 1 in 5% EtOH/PBS [1] | MBEC-Biofilm Elimination, With 0.01% compound 2 in 5% EtOH/PBS [1] | MBEC-Biofilm Elimination, With 0.01% compound 7 in 5% EtOH/PBS [1] | MBEC-Biofilm Elimination, With 0.05% compound 3 in 5% EtOH/PBS [1] | MBEC-Biofilm Elimination, With 0.05% compound 6 in 5% EtOH/PBS [1] | MBEC-Biofilm Inhibition, without salt of compound 2 [2] | MBEC-Biofilm Inhibition, with 0.1% salt of compound 2 [2] | MBEC-Biofilm Inhibition, without salt of compound 6 [2] | MBEC-Biofilm Inhibition, with 0.1% salt of compound 6 [2] | MBEC-Biofilm Inhibition, Without compound 1 [2] | further results
1 | NCC[C@H](O)C(=O)N[C@@H]1C[C@H](N)[C@@H](O[C@H]2O[C@H](CN)[C@@H](O)[C@H](O)[C@H]2O)[C@H](O)[C@H]1O[C@H]1O[C@H](CO)[C@@H](O)[C@H](N)[C@H]1O [AK, amikacin] | >8 | 8 | >8 | 8 | >8 | >8 | >8 | >8 | >8 | >8 | >8 | 8 | 8 | >8 | >8 | >8 | >8 | >8 | >8 | >8 | MBEC-Biofilm Elimination, With 0.1% w/v compound 9 in PBS [1]: >8; MBEC-Biofilm Inhibition, Without compound 2 [2]: >8; MBEC-Biofilm Inhibition, Without compound 3 [2]: >8; MBEC-Biofilm Inhibition, Without compound 6 [2]: >8; MBEC-Biofilm Inhibition, Without compound 7 [2]: >8; MBEC-Biofilm Inhibition, Without compound 9 [2]: >8; MBEC [2]: >8 µg/mL; MBEC, μg/mL +Compound 1 [2]: >8 µg/mL; MBEC, μg/mL +Compound 2 [2]: >8 µg/mL; MBEC, μg/mL +Compound 7 [2]: 2 to 8 µg/mL; (% reduction) +Compound 7 [2, 3]: > 50%; MBEC-Biofilm Inhibition, With 0.01% compound 1 in 5% EtOH/PBS [2, 4]: >8; MBEC-Biofilm Inhibition, With 0.01% compound 2 in 5% EtOH/PBS [2]: 2-8; value in parentheses after MBEC-Biofilm Inhibition with 0.01% compound 2 (% reduction as in Table 2) [2]: ≥ 50; MBEC-Biofilm Inhibition, With 0.01% compound 7 in 5% EtOH/PBS [2]: >8; MBEC-Biofilm Inhibition, With 0.05% compound 3 in 5% EtOH/PBS [2]: >8; MBEC-Biofilm Inhibition, With 0.05% compound 6 in 5% EtOH/PBS [2]: >8; MBEC-Biofilm Inhibition, With 0.1% w/v compound 9 in PBS [2]: >8
2 | C[C@H]1[C@H](NC(=O)/C(=N\OC(C)(C)C(=O)O)c2csc(N)n2)C(=O)N1S(=O)(=O)O [AZT, astreonam] | >4 | >4 | >4 | >4 | >4 | >4 | >4 | >4 | >4 | >4 | >4 | >4 | >4 | >4 | >4 | >4 | >4 | >4 | >4 | >4 | MBEC-Biofilm Elimination, With 0.1% w/v compound 9 in PBS [1]: >4; MBEC-Biofilm Inhibition, Without compound 2 [2]: >4; MBEC-Biofilm Inhibition, Without compound 3 [2]: >4; MBEC-Biofilm Inhibition, Without compound 6 [2]: >4; MBEC-Biofilm Inhibition, Without compound 7 [2]: >4; MBEC-Biofilm Inhibition, Without compound 9 [2]: >4; MBEC-Biofilm Inhibition, With 0.01% compound 1 in 5% EtOH/PBS [2, 4]: >4; MBEC-Biofilm Inhibition, With 0.01% compound 2 in 5% EtOH/PBS [2]: >4; MBEC-Biofilm Inhibition, With 0.01% compound 7 in 5% EtOH/PBS [2]: >4; MBEC-Biofilm Inhibition, With 0.05% compound 3 in 5% EtOH/PBS [2]: >4; MBEC-Biofilm Inhibition, With 0.05% compound 6 in 5% EtOH/PBS [2]: >4; MBEC-Biofilm Inhibition, With 0.1% w/v compound 9 in PBS [2]: >4
3 | O=C(N[C@H](CO)[C@H](O)c1ccc([N+](=O)[O-])cc1)C(Cl)Cl [C, chloramphenicol] | >4 | >4 | >4 | >4 | >4 | >4 | >4 | >4 | >4 | >4 | >4 | >4 | >4 | >4 | >4 | >4 | >4 | >4 | >4 | >4 | MBEC-Biofilm Elimination, With 0.1% w/v compound 9 in PBS [1]: >4; MBEC-Biofilm Inhibition, Without compound 2 [2]: >4; MBEC-Biofilm Inhibition, Without compound 3 [2]: >4; MBEC-Biofilm Inhibition, Without compound 6 [2]: >4; MBEC-Biofilm Inhibition, Without compound 7 [2]: >4; MBEC-Biofilm Inhibition, Without compound 9 [2]: >4; MBEC-Biofilm Inhibition, With 0.01% compound 1 in 5% EtOH/PBS [2, 4]: >4; MBEC-Biofilm Inhibition, With 0.01% compound 2 in 5% EtOH/PBS [2]: >4; MBEC-Biofilm Inhibition, With 0.01% compound 7 in 5% EtOH/PBS [2]: >4; MBEC-Biofilm Inhibition, With 0.05% compound 3 in 5% EtOH/PBS [2]: >4; MBEC-Biofilm Inhibition, With 0.05% compound 6 in 5% EtOH/PBS [2]: >4; MBEC-Biofilm Inhibition, With 0.1% w/v compound 9 in PBS [2]: >4
4 | CC(C)(O/N=C(\C(=O)N[C@@H]1C(=O)N2C(C(=O)[O-])=C(C[n+]3ccccc3)CS[C@H]12)c1csc(N)n1)C(=O)O [CAZ, ceftazidime] | >4 | >4 | >4 | >4 | >4 | >4 | >4 | >4 | >4 | >4 | >4 | >4 | >4 | >4 | >4 | >4 | >4 | >4 | >4 | >4 | MBEC-Biofilm Elimination, With 0.1% w/v compound 9 in PBS [1]: >4; MBEC-Biofilm Inhibition, Without compound 2 [2]: >4; MBEC-Biofilm Inhibition, Without compound 3 [2]: >4; MBEC-Biofilm Inhibition, Without compound 6 [2]: >4; MBEC-Biofilm Inhibition, Without compound 7 [2]: >4; MBEC-Biofilm Inhibition, Without compound 9 [2]: >4; MBEC-Biofilm Inhibition, With 0.01% compound 1 in 5% EtOH/PBS [2, 4]: >4; MBEC-Biofilm Inhibition, With 0.01% compound 2 in 5% EtOH/PBS [2]: >4; MBEC-Biofilm Inhibition, With 0.01% compound 7 in 5% EtOH/PBS [2]: >4; MBEC-Biofilm Inhibition, With 0.05% compound 3 in 5% EtOH/PBS [2]: >4; MBEC-Biofilm Inhibition, With 0.05% compound 6 in 5% EtOH/PBS [2]: >4; MBEC-Biofilm Inhibition, With 0.1% w/v compound 9 in PBS [2]: >4
5 | O=C(O)c1cn(C2CC2)c2cc(N3CCNCC3)c(F)cc2c1=O [CP, ciprofloxacin] | >0.5 | 0.5 | >0.5 | >0.5 | >0.5 | >0.5 | >0.5 | >0.5 | >0.5 | >0.5 | >0.5 | >0.5 | >0.5 | >0.5 | >0.5 | >0.5 | >0.5 | >0.5 | >0.5 | >0.5 | MBEC-Biofilm Inhibition, Without compound 2 [2]: >0.5; MBEC-Biofilm Inhibition, Without compound 3 [2]: >0.5; MBEC-Biofilm Inhibition, Without compound 6 [2]: >0.5; MBEC-Biofilm Inhibition, Without compound 7 [2]: >0.5; MBEC-Biofilm Inhibition, Without compound 9 [2]: 0.5; MBEC [2]: >0.5 µg/mL; MBEC, μg/mL +Compound 1 [2]: 0.5 µg/mL; MBEC, μg/mL +Compound 2 [2]: >0.5 µg/mL; MBEC, μg/mL +Compound 7 [2]: 0.5 µg/mL; (% reduction) +Compound 1 [2, 3]: > 50%; (% reduction) +Compound 7 [2, 3]: > 50%; MBEC-Biofilm Inhibition, With 0.01% compound 1 in 5% EtOH/PBS [2, 4]: 0.5; value in parentheses after MBEC-Biofilm Inhibition with 0.01% compound 1 (% reduction as in Table 2) [2, 4]: ≥ 50; MBEC-Biofilm Inhibition, With 0.01% compound 2 in 5% EtOH/PBS [2]: 0.5; value in parentheses after MBEC-Biofilm Inhibition with 0.01% compound 2 (% reduction as in Table 2) [2]: ≥ 50; MBEC-Biofilm Inhibition, With 0.01% compound 7 in 5% EtOH/PBS [2]: >0.5; MBEC-Biofilm Inhibition, With 0.05% compound 3 in 5% EtOH/PBS [2]: >0.5; MBEC-Biofilm Inhibition, With 0.05% compound 6 in 5% EtOH/PBS [2]: >0.5
